Laboratory results taken from patent publication US6933285B2, “Flavin N-oxides: new anti-cancer agents and pathogen eradication agents” (The Ohio State University, priority 2002, dated 2005).

Experiments:
[1] = tested on: PA-Lymphoblastoid Cell Line; test: PA-Lymphoblastoid cell viability under oxygen deprivation in the presence of sensitizers; format: cell-based; conditions: PA-Lymphoblastoid cells; for cell count at Time (hour) 0 / cell count at Time (hour) 4 / cell count at Time (hour) 20: solutions and cells bubbled with nitrogen 15 minutes; for cell count at Time (hour) 0: time 0 hour; for cell count at Time (hour) 4: time 4 hour; for cell count at Time (hour) 20: time 20 hour
Procedure: PA-Lymphoblastoid Cell Line: Study of the effect of oxygen deprivation in the presence of 3 sensitizers Six solutions were prepared having the solutions and the cells from each of the 6 sets were “bubbled” with nitrogen separately for 15 minutes before being mixed.
The results of this study are shown graphically in FIG. 5.

[2] = tested on: bacteriophage Φ6; conditions: platelet concentrates, normal oxygen tension, UVA; cited from earlier work
[3] = tested on: non-enveloped parvoviruses; conditions: cited from earlier work
[4] = Water solubility; format: physicochemical
From the text: Riboflavin N-oxide, is one example of a flavin N-oxide, it is water soluble and electrically neutral. Additionally, upon fragmentation of the neutral radical, riboflavin N-oxide forms the hydroxyl radical, which damages the nucleic acid, and riboflavin, vitamin B2, which is generally regarded as safe in humans.
In the methods of the present invention, the flavin N-oxides are introduced to the composition containing the blood products. It is preferred that the flavin N-oxides of the present invention are water-soluble. By “water soluble” we mean that it is preferred that the solubility of the flavin N-oxides is at least 100 micromolar in water. An exemplary flavin N-oxide for the methods of the present invention is riboflavin N-oxide. Once introduced to the blood product composition, riboflavin N-oxide, which is electrically neutral, may passively transport into cells, where it is enzymatically activated to form a radical anion. Additionally, riboflavin N-oxide may be activated by electromagnetic radiation. When electromagnetic radiation is used as the activator, the wavelength of light is preferably in the visible region.

| SMILES | cell count at Time (hour) 0 [1] | cell count at Time (hour) 4 [1] | cell count at Time (hour) 20 [1] | inactivation of the virus bacteriophage Φ6 [2] | potency towards the non-enveloped parvoviruses [3] | water solubility [4] | hypoxic toxicity ([1]; oxygen deprivation) |
| --- | --- | --- | --- | --- | --- | --- | --- |
| Nc1n[n+]([O-])c2ccccc2[n+]1[O-] [Tirapazamine (TPZ), Tirapazamine] | 0.4 million cells/mL | 0.4 million cells/mL | 0.36 million cells/mL | – | – | – | – |
| Cc1cc2nc3c(=O)[nH]c(=O)nc-3n(C[C@H](O)[C@H](O)[C@H](O)CO)c2cc1C [Riboflavin (RB), Riboflavin] | 1 million cells/mL | 0.9 million cells/mL | 0.63 million cells/mL | – | – | – | – |
| Cc1oc2c(C)c3oc(=O)cc(C)c3cc2c1CN [AMT] | – | – | – | completely inactivate | limited potency | – | – |
| COc1c2occc2cc2ccc(=O)oc12 [8-MOP] | – | – | – | completely inactivate | – | – | – |
| Cc1cc2c(cc1C)[n+]([O-])c1c(=O)[nH]c(=O)nc-1n2CC(O)C(O)C(O)CO (centres unmarked) [RBO, riboflavin N-oxide] | 0.45 million cells/mL | 0.46 million cells/mL | 0.06 million cells/mL | – | – | water soluble | high hypoxic toxicity |
